“Also recorded” adds a separate entry of the source. Values belong to the compound of their own block, whether it stands above or below them.
Columns and labels:
[1] = system: human colon carcinoma HT29 cell line; settings: supplemented with high concentrations of PLP and leucovorin; cited from earlier work
[2] = system: human colon carcinoma HCT116 cell line; settings: supplemented with high concentrations of PLP and leucovorin; cited from earlier work
[3] = system: murine leukemia L1210 cell line; settings: supplemented with high concentrations of PLP and leucovorin; cited from earlier work
solid tumors = assay: Phase I/IIa study ISO-CC-005 of arfolitixorin with 5-FU; assay type: in vivo, human; settings: between 8 and 16 weeks after initiating treatment
Description: Arfolitixorin has been in development for a number of years and has been studied in several clinical studies.
The completion of the study was announced in January 2020. In total, 105 patients were included in the study. […] These patients had been treated with the “doublet” regimens comprising 120 mg/m^2 arfolitixorin and 5-fluorouracil (5-FU) with either irinotecan or oxaliplatin (ARFIRI/ARFOX). Out of the 31 patients, 17 were treated with an ARFOX regimen.

[4] = [6R]-MTHF levels after arfolitixorin versus comparable leucovorin treatment; assay type: in vivo
Description: This dependency on cellular activation provides a hurdle for reaching sufficient levels of the active [6R]-MTHF. […] Secondly, the enzymatic activation is genetically regulated^16,18, and is therefore associated with variability between individuals and conditions. Arfolitoxirin is believed to be efficacious in a larger proportion of patients with less inter- and intra-individual variability. These differences may potentially turn out to be of significant importance for increased clinical efficacy in 5-FU based cancer treatment.

[5] = cited from earlier work
[6] = air, sunlight; cited from earlier work
[7] = Stability of the drug substance salt; assay type: physicochemical; settings: compared with very unstable [6R]-5,10-MTHF
Description: Arfolitixorin (former Modufolin®) is a folate-based biomodulator developed by applicant to improve the outcome of a range of antimetabolite treatments used within oncology. One of the therapeutic areas of specific interest included in the development program of arfolitixorin is as biomodulator of 5-fluorouracil (5-FU) activity in standard treatment regime for advanced, metastatic CRC, such as Stage IV. A stable lyophilizate formulation of the naturally occurring diastereoisomeric folate [6R]-5,10-MTHF has successfully been made from the drug substance arfolitixorin hemisulfate. […] As mentioned in the background section of the present application, [6R]-5,10-methylenetetrahydrofolate, abbreviated herein as [6R]-5,10-MTHF, needs to be metabolically formed when using the widely used folate-based drugs leucovorin and levoleucovorin.

[8] = kidneys; cited from earlier work
[9] = in vitro; cited from earlier work

SMILES: O=c1[nH]cc(F)c(=O)[nH]1 [5-FU, 5-fluorouracil]
cytotoxic activity of 5-FU [1]: potentiated; also recorded: strongly potentiated | cytotoxic activity of 5-FU [2]: potentiated; also recorded: strongly potentiated | cytotoxic activity of 5-FU [3]: potentiated; also recorded: strongly potentiated

[6R]-MTHF levels relative to comparable treatment with leucovorin [4]: 3-4 times
SMILES: Nc1nc2c(c(=O)[nH]1)N1CN(c3ccc(C(=O)N[C@@H](CCC(=O)O)C(=O)O)cc3)C[C@H]1CN2 [Arfolitixorin, [6R]-5,10-methylenetetrahydrofolate]
progression of solid tumors (solid tumors): No statistically significant progression

SMILES: Cc1ncc(CO)c(CO)c1O.Cl [Pyridoxine hydrochloride]
solubility in water [5]: One gram dissolves in 5 ml of water | stability [6]: stable in air and is slowly affected by sunlight

stability of the salt [7]: unexpectedly stable salt
SMILES: Nc1nc2c(c(=O)[nH]1)N1CN(c3ccc(C(=O)N[C@@H](CCC(=O)O)C(=O)O)cc3)C[C@H]1CN2.Nc1nc2c(c(=O)[nH]1)N1CN(c3ccc(C(=O)N[C@@H](CCC(=O)O)C(=O)O)cc3)C[C@H]1CN2.O=S(=O)(O)O [arfolitixorin hemisulfate]

SMILES: Nc1nc2c(c(=O)[nH]1)N(C=O)[C@H](CNc1ccc(C(=O)N[C@@H](CCC(=O)O)C(=O)O)cc1)CN2 [d-LV]
excretion [8]: slowly excreted by the kidneys

SMILES: Nc1nc(=O)c2c([nH]1)NC[C@H](CNc1ccc(C(=O)N[C@@H](CCC(=O)O)C(=O)O)cc1)N2C=O [l-LV]
conversion to methyl-tetrahydrofolate [9]: rapidly converted to the biologically available methyl-tetrahydrofolate form

— patent publication US20240350495A1, “[6R]-MTHF IN B6 ENHANCED 5-FU BASED CHEMOTHERAPY OF CARCINOMA” (Isofol Medical AB, priority 2023, published 2024)
